# Experimental data reported in paper PMC9498203, “Characterization and Preliminary Application of a Novel Lipoxygenase from Enterovibrio norvegicus” (Foods, 2022).
# Target: T1, EnLOX (Enterovibrio norvegicus, UniProt A0A1I5T4S6)
# T1 construct: gene SAMN03084138_03074; E. coli BL21(DE3); Ni-NTA purified
# T1 sequence (A0A1I5T4S6 1-726): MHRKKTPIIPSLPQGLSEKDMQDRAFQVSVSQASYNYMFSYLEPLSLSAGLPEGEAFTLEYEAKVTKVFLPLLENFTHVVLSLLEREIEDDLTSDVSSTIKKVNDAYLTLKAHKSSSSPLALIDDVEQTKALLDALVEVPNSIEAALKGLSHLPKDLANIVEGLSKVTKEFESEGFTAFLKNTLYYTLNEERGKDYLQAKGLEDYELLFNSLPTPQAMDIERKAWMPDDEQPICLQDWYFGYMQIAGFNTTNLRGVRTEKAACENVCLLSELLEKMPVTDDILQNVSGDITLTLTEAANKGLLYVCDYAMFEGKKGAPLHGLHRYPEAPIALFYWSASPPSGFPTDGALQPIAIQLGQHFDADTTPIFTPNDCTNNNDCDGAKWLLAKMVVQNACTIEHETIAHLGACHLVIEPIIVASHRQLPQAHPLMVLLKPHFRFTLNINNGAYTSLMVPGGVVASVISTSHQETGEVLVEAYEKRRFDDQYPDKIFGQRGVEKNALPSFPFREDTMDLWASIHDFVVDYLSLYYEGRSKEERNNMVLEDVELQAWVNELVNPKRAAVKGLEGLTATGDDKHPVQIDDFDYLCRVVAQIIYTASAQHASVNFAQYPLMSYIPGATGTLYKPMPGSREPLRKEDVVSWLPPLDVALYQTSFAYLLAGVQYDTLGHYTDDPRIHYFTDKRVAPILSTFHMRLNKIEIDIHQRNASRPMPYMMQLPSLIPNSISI
# Experiment: absorbance at […] nm, Michaelis-Menten nonlinear fit
# Assay type: biochemical
# Conditions: 20 mmol L^−1 Tris-HCl, pH 8.0, 50 °C
row,Compound,Km
1,"CC/C=C\C/C=C\C/C=C\CCCCCCCC(=O)O [ALA, α-linolenic acid]",2.32 µM
2,"CCCCC/C=C\C/C=C\C/C=C\CCCCC(=O)O [GLA, γ-linolenic acid]",8.79 µM
